# System: Ehrlich Ascites-Tumorzellen
# Test: Concentration-dependent growth inhibition of Ehrlich ascites tumour cells (antiproliferative effect)
# Type: cell-based
# Conditions: Wachstumshemmung, read-out: Hemmung (%); for inhibition at 3 µM: Konzentration 3 μmolar; for inhibition at 10 µM: Konzentration 10 μmolar; for inhibition at 30 µM: Konzentration 30 μmolar; for inhibition at 100 µM: Konzentration 100 μmolar
# Source text: Zur Bestimmung der cytostatischen Wirkung wurde die antiproliferative Wirkung bei Ehrlich-Ascites Tumorzellen untersucht. Dabei zeigte sich, daß die erfindungsgemäßen Verbindungen ausgezeichnete cytostatische Wirkung aufweisen. Sie können daher allein oder in Mischung mit anderen Wirksubstanzen in Form üblicher galenischer Zubereitungen als Cytostatika oder Virustatika eingesetzt werden.
# Konzentrationsabhängige Wachstumshemmung von Ehrlich Ascites-Tumorzellen.
SMILES,inhibition at 3 µM,inhibition at 10 µM,inhibition at 30 µM,inhibition at 100 µM
"CCCCCCCCCCCCCCCCOCC(Cl)COP(=O)(O)OP(=O)(O)OC[C@H]1O[C@@H](n2ccc(N)nc2=O)[C@H](O)[C@@H]1O (stereo partly shown) [Bsp. 4, Cytidin-5'-diphosphat-2-chlor-2-desoxy-1-0-hexadecylglycerol]",18%,38%,67%,94%
"CCCCCCCCCCCCCCCCOCC(COP(=O)(O)OP(=O)(O)OC[C@H]1O[C@@H](n2ccc(N)nc2=O)[C@H](O)[C@@H]1O)OCC(F)(F)F (stereo partly shown) [Bsp. 2, Cytidin-5'-diphosphat-1-0-hexadecyl-2-0-(2,2,2-trifluorethyl)glycerol]",9.5%,30%,86%,100%
"CCCCCCCCCCCCCCCCOCC(CCl)OP(=O)(O)OP(=O)(O)OC[C@H]1O[C@@H](n2ccc(N)nc2=O)[C@H](O)[C@@H]1O (stereo partly shown) [Bsp. 3, Cytidin-5'-diphosphat-3-chlor-3-desoxy-1-0-hexadecylglycerol]",12%,17%,29%,69%
"CCCCCCCCCCCCCCCCOP(=O)(O)OP(=O)(O)OC[C@H]1O[C@@H](n2ccc(N)nc2=O)[C@H](O)[C@@H]1O [Bsp. 1, Cytidin-5'-diphosphat-hexadekanol]",12%,19%,46%,31%

# From patent EP0432183B1, “NEW CITYDIN-5'-DIPHOSPHATE ALKANOLS AND GLYCEROLS, A PROCESS FOR PREPARING THEM AND THEIR USE” (Clarion Pharmaceuticals, Inc., priority 1988, dated 1990)
